Results taken from ChEMBL document CHEMBL4477234, “Potent Suppressive Effects of 1-Piperidinylimidazole Based Novel P2X7 Receptor Antagonists on Cancer Cell Migration and Invasion” (J Med Chem, 2016).
Active and inactive are the calls of the source. No cut-off for these calls is given here.

Experiments:
[1] = biological target: T1, P2X purinoceptor 2 (Homo sapiens) (UniProt Q9UBL9); assay: Antagonist activity at human P2X2 receptor expressed in human 1321N1 cells assessed as inhibition of ATP-induced calcium influx at 1 uM preincubated for 30 mins prior to ATP-stimulation by calcium influx assay; type: cell-based
T1 sequence (whole entry): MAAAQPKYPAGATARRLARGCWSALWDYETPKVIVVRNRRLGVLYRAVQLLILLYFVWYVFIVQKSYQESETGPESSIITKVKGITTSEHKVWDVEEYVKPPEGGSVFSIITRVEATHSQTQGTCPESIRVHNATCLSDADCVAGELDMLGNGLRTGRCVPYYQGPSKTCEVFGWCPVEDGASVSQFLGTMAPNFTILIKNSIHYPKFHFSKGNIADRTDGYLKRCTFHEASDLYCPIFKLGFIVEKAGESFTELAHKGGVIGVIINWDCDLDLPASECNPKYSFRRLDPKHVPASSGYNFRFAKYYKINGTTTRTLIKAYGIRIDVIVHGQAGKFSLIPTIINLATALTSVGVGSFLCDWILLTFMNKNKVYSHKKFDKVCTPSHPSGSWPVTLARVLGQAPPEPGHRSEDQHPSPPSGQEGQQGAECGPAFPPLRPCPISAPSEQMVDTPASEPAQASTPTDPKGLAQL

[2] = biological target: T2, P2X purinoceptor 4 (Homo sapiens) (UniProt Q99571); assay: Antagonist activity at human P2X4 receptor expressed in human 1321N1 cells assessed as inhibition of ATP-induced calcium influx at 1 uM preincubated for 30 mins prior to ATP-stimulation by calcium influx assay; type: cell-based
T2 sequence (whole entry): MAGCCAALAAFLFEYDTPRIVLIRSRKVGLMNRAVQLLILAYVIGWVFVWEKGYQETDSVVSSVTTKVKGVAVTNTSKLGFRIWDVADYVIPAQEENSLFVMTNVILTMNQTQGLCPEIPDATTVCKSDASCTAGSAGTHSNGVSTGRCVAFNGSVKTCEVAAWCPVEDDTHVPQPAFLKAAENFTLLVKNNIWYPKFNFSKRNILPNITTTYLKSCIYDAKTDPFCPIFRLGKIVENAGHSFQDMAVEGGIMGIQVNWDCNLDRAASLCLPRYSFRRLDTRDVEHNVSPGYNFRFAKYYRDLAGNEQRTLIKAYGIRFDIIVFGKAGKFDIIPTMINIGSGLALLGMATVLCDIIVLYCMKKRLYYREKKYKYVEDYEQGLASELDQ

P2X purinoceptor 7 [3] = biological target: T3, P2X purinoceptor 7 (Homo sapiens, UniProt Q99572); assay: Antagonist activity at human P2X7 receptor expressed in HEK293 cells assessed as inhibition of BzATP-induced EtBr uptake measured after 2 hrs by fluorescence analysis; type: cell-based
T3 sequence (Q99572 whole entry): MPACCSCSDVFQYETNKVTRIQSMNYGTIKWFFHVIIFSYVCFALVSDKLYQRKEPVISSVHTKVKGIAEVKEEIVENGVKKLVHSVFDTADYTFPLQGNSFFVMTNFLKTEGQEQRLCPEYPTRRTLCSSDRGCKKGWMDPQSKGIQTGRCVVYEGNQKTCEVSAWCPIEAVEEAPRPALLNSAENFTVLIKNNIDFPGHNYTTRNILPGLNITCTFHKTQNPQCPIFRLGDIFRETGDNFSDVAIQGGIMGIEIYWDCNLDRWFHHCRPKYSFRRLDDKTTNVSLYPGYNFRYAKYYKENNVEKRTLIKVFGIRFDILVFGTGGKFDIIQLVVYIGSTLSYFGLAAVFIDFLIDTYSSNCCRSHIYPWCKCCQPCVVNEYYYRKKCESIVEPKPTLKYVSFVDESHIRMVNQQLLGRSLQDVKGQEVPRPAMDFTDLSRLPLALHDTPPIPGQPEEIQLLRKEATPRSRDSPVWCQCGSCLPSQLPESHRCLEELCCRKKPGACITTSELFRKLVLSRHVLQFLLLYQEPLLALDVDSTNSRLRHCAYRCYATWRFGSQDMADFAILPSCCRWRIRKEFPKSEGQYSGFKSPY

[4] = biological target: T4, P2X purinoceptor 1 (Homo sapiens) (UniProt P51575); assay: Antagonist activity at human P2X1 receptor expressed in human 1321N1 cells assessed as inhibition of ATP-induced calcium influx at 1 uM preincubated for 30 mins prior to ATP-stimulation by calcium influx assay; type: cell-based
T4 sequence (whole entry): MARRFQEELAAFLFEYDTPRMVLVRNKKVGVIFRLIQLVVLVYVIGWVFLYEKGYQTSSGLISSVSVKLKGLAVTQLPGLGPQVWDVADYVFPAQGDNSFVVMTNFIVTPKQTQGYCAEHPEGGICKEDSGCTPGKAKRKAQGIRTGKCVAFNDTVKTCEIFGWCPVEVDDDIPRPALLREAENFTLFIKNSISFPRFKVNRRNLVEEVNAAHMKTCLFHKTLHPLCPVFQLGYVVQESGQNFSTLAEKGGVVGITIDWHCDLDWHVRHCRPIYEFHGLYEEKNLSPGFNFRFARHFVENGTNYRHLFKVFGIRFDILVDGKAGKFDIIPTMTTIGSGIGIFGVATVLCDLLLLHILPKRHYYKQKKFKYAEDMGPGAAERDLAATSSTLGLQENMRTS

[5] = biological target: T5, P2X purinoceptor 3 (Homo sapiens) (UniProt P56373); assay: Antagonist activity at human P2X3 receptor expressed in human 1321N1 cells assessed as inhibition of ATP-induced calcium influx at 1 uM preincubated for 30 mins prior to ATP-stimulation by calcium influx assay; type: cell-based
T5 sequence (whole entry): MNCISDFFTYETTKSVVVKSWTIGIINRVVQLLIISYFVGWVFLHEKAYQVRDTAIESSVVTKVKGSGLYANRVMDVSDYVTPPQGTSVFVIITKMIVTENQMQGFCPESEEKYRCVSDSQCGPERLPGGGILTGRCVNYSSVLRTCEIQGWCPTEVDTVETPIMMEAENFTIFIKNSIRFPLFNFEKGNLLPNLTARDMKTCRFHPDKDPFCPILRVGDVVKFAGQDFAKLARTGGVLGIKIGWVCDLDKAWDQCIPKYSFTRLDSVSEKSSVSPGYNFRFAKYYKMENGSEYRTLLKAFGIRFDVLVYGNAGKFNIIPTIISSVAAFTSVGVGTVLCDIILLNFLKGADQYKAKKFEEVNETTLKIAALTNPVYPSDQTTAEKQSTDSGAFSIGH

P2X purinoceptor 7 [6] = biological target: T3, P2X purinoceptor 7; assay: Antagonist activity at human P2X7 receptor in LPS/IFN-gamma-differentiated human THP-1 cells assessed as suppression of BzATP-stimulated IL-1beta release per-incubated for 30 mins before BzATP addition and measured after 30 mins by ELISA; type: cell-based
MDA-MB-231 [7] = assay: Antimigratory activity against human MDA-MB-231 cells xenografted in zebrafish assessed as inhibition of cell dissemination and invasion at 10 uM measured after 4 days by fluorescence microscopic analysis relative to control; type: functional, cell-based
MDA-MB-231 [8] = assay: Antiinvasive activity against human MDA-MB-231 cells measured after 48 hrs by transwell invasion assay; type: functional, cell-based; details: MDA-MB-231, 48 h
MDA-MB-231 [9] = assay: Cytotoxicity against human MDA-MB-231 cells assessed as reduction in cell viability at 2.5 to 10 uM measured after 48 hrs by WST-1 cell viability assay; type: cell-based; details: mda-mb-231, 48 h
Homo sapiens = species on record: Homo sapiens; assay: Selectivity ratio, ratio of IC50 for human P2X3 receptor expressed in human 1321N1 cells to human P2X7 receptor expressed in HEK293 cells; type: cell-based
P2X purinoceptor 3 [10] = biological target: T6, P2X purinoceptor 3 (Homo sapiens, UniProt P56373); assay: Antagonist activity at human P2X3 receptor expressed in human 1321N1 cells assessed as inhibition of ATP-induced calcium influx preincubated for 30 mins prior to ATP-stimulation by calcium influx assay; type: cell-based
T6 sequence (P56373 whole entry): T5 sequence (whole entry)

[11] = Toxicity in zebrafish assessed as induction of teratogenic developmental toxicity at 10 uM; parameters: species or system Danio rerio; details: in vivo
P2X purinoceptor 2 = biological target: T7, P2X purinoceptor 2 (Homo sapiens, UniProt Q9UBL9); assay: Antagonist activity at human P2X2 receptor expressed in human 1321N1 cells assessed as inhibition of ATP-induced calcium influx preincubated for 30 mins prior to ATP-stimulation by calcium influx assay; type: cell-based
T7 sequence (Q9UBL9 whole entry): T1 sequence (whole entry)

[12] = biological target: T2, P2X purinoceptor 4 (Homo sapiens); assay: Antagonist activity at human P2X4 receptor expressed in human 1321N1 cells assessed as inhibition of ATP-induced calcium influx at 10 uM preincubated for 30 mins prior to ATP-stimulation by calcium influx assay; type: cell-based
P2X purinoceptor 7 [13] = biological target: T3, P2X purinoceptor 7; assay: Antagonist activity at human P2X7 receptor
P2X purinoceptor 3 [14] = biological target: T8, P2X purinoceptor 3 (Rattus norvegicus, UniProt P49654); assay: Antagonist activity at P2X3 receptor in Wistar rat DRG neurons assessed as inhibition of alpha/beta-meATP-induced currents preincubated for 5 mins prior to alpha/beta-meATP-stimulation measured at every sec for 5 mins by whole cell patch-clamp assay
T8 sequence (P49654 whole entry): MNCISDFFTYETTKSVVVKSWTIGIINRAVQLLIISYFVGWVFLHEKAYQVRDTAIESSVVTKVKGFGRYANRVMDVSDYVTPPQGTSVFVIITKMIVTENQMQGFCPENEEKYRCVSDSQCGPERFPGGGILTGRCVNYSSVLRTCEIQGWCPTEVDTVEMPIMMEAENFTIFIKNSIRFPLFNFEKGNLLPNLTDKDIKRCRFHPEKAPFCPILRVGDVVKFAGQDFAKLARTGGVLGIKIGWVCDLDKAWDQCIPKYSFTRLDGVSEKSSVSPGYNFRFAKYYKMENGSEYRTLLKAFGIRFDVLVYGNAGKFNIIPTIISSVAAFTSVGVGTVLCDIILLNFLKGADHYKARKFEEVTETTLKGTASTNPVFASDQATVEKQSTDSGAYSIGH

P2X purinoceptor 1 = biological target: T9, P2X purinoceptor 1 (Rattus norvegicus, UniProt P47824); assay: Antagonist activity at P2X1 receptor in rat vas deferens assessed as inhibition of alpha/beta-meATP-induced calcium influx
T9 sequence (P47824 whole entry): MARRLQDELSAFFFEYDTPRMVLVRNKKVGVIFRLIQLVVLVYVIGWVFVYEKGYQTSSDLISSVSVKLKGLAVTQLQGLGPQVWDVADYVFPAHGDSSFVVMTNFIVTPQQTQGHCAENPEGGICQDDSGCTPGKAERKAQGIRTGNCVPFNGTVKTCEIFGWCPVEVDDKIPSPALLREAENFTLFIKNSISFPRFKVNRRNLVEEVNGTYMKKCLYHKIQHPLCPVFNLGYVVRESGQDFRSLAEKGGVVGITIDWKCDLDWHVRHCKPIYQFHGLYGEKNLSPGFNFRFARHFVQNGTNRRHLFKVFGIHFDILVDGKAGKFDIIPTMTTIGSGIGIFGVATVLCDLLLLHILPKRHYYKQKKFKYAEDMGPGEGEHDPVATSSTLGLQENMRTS

| SMILES | inhibition [1] [%] | inhibition [2] [%] | IC50 (P2X purinoceptor 7 [3]) [nM] | inhibition [4] [%] | IC50 (P2X purinoceptor 7 [6]) [nM] | inhibition (MDA-MB-231 [7]) | IC50 (MDA-MB-231 [8]) [µM] | IC50 (P2X purinoceptor 3 [10]) [nM] | further results |
| --- | --- | --- | --- | --- | --- | --- | --- | --- | --- |
| CS(=O)(=O)c1ccc(C(=O)N2CCC(c3nc4cc(OS(=O)(=O)c5cccc6cnccc56)ccc4[nH]3)CC2)cc1 | 7 | 15 | 7 | 16 | 43 | inactive | – | – | inhibition [5]: 3% |
| CN(C)c1ccc(C(=O)N2CCN(c3cc(=O)[nH]c(=O)n3Cc3ccc(OS(=O)(=O)c4cccc5cnccc45)cc3)CC2)cc1 | 2 | 6 | 1.53 | 23 | 1.33 | Active | 2.59 | 2660 | Activity (MDA-MB-231 [9]): Non-Toxic; Ratio IC50 (Homo sapiens): 1000 to 7000; Activity [11]: Non-Toxic |
| CN(C)c1ccc(C(=O)N2CCC(n3cncc3-c3ccc(OS(=O)(=O)c4cccc(C(=O)NC5CC5)c4)cc3)CC2)cc1 | 7 | 7 | 0.49 | 22 | 1.03 | Active | 3.63 | 910 | Activity (MDA-MB-231 [9]): Non-Toxic; Ratio IC50 (Homo sapiens): 1000 to 7000; Activity [11]: Non-Toxic |
| Nc1c(S(=O)(=O)O)cc(Nc2ccc(S(=O)(=O)O)c(Nc3nc(Cl)nc(Cl)n3)c2)c2c1C(=O)c1ccccc1C2=O | – | – | – | – | – | – | – | – | IC50 (P2X purinoceptor 2): 692 nM; inhibition [12]: 3% |
| O=C(NCC12CC3CC(CC(C3)C1)C2)c1cc(CCCNCCCO)ccc1Cl | – | – | – | – | 0.06 | Active | 8.7 | – | IC50 (P2X purinoceptor 7 [13]): 10 to 13 nM |
| O=C(Nc1cc(C(=O)Nc2ccc(S(=O)(=O)O)cc2)cc(C(=O)Nc2ccc(S(=O)(=O)O)cc2)c1)Nc1cc(C(=O)Nc2ccc(S(=O)(=O)O)cc2)cc(C(=O)Nc2ccc(S(=O)(=O)O)cc2)c1 | – | – | – | – | – | – | – | 1580 | IC50 (P2X purinoceptor 3 [14]): 527 nM |
| O=C1NC(=O)N(C2CCN(C(=O)c3ccc(Cl)c(C(F)(F)F)c3)CC2)C1Cc1ccc(OS(=O)(=O)c2cccc3cnccc23)cc1 (centres undefined) | 5 | 0 | – | 28 | 54 | – | – | 600 | – |
| Cc1ccc(C(=O)Nc2ccc(S(=O)(=O)O)c3cc(S(=O)(=O)O)cc(S(=O)(=O)O)c23)cc1NC(=O)c1cccc(NC(=O)Nc2cccc(C(=O)Nc3cc(C(=O)Nc4ccc(S(=O)(=O)O)c5cc(S(=O)(=O)O)cc(S(=O)(=O)O)c45)ccc3C)c2)c1 [SURAMIN] | – | – | – | – | – | – | – | – | IC50 (P2X purinoceptor 1): 4.68 µM |
| COc1ccc(CC(=O)NC(N/C(=N/C#N)Nc2cccc3ncccc23)C(C)(C)C)cc1OC (centres undefined) | – | – | – | – | – | – | – | – | IC50 (P2X purinoceptor 7 [13]): 90 nM |
